This note sets out measurements from patent US7632933B2, “Corticotropin releasing factor 2 receptor agonists” (priority 2002, dated 2009).

One assay addresses T1, CRF1R (Homo sapiens, UniProt P34998).
T1 sequence (P34998 24-415): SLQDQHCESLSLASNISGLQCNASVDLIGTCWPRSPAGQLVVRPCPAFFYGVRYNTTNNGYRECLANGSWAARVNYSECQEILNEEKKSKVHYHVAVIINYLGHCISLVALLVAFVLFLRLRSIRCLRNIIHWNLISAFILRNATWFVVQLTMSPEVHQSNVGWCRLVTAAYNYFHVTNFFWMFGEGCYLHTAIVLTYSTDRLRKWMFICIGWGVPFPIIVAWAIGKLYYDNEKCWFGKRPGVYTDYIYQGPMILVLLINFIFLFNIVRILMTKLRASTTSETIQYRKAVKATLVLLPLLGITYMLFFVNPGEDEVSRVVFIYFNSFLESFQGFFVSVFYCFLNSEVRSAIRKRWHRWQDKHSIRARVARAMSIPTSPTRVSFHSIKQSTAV
The assay is described as follows: CRF1R agonist activity (EC50 and Emax), called comparative CRF binding. The assay is classed as cell-based. The conditions noted are these: CRF1R; for EC50: read-out: CRF1R EC50. An excerpt: (§1) The pharmacological activity and selectivity of the peptides of present invention can be determined using published test procedures. See, e.g, U.S. patent application Ser. No. 09/799,978. Because CRF2R and CRF1R are homologous proteins, it is expected that a certain proportion of agonists for CRF2R will also function as agonists of CRF1R. As discussed above, activation of CRF1R induces activation of the HPA axis since increased corticosteroid production leads to skeletal muscle atrophy. In most cases in which an increase in muscle mass or function is desired, it is not desirable to activate the HPA axis.
(§2) Because it is desirable to discriminate binding between CRF2R, as compared with CRF1R, the assays described above may be conducted using a cell, or membrane from a cell, which expresses only CRF2R or the assays can be conducted with a recombinant source of CRF2R. Cells expressing both forms of CRFR may be modified using homologous recombination to inactivate or otherwise disable the CRF1R gene. Alternatively, if the source of CRFR contains more than one CRFR type, the background signal produced by the receptor which is not of interest must be subtracted from the signal obtained in the assay. […] Known antagonists of CRFRs include, but are not limited to, antalarmin (CRF1R selective), antisauvagine-30 (CRF2R selective) and astressin (nonselective for CRF1R/CRF2R).
(§3) Cell-based assays include the steps of contacting cells which express CRF1R or CRF2R with a peptide of the present invention or control and measuring activation of the CRFR by measuring the expression or activity of components of the CRFR signal transduction pathways.
(§4) For example, after contact with a peptide of the present invention, lysates of the cells can be prepared and assayed for induction of cAMP. cAMP is induced in response to Gαs activation. Because Gαs is activated by receptors other than CRFR and because a test peptide may be exerting its effect through CRFRs or by another mechanism, two control comparisons are relevant for determining whether the peptide increases levels of cAMP via activation of a CRFR. One control compares the cAMP level of cells contacted with the peptide and the cAMP level of cells contacted with a control compound (i.e., the vehicle in which the peptide is dissolved).
(§5) In one example, cAMP induction is measured with the use of DNA constructs containing the cAMP responsive element linked to any of a variety of reporter genes can be introduced into cells expressing CRFRs. Such reporter genes include, but are not limited to, chloramphenicol acetyltransferase (CAT), luciferase, glucuronide synthetase, growth hormone, fluorescent proteins (e.g., Green Fluorescent Protein), or alkaline phosphatase. Following exposure of the cells to the peptide, the level of reporter gene expression can be quantitated to determine the peptide's ability to increase cAMP levels and thus determine the peptide's ability to activate the CRFR.
(§6) In addition to using cells expressing full length CRFRs, cells can be engineered which express CRFRs containing the ligand binding domain of the receptor coupled to, or physically modified to contain, reporter elements or to interact with signaling proteins. For example, a wild type CRFR or CRFR fragment can be fused to a G-protein resulting in activation of the fused G-protein upon agonist binding to the CRFR portion of the fusion protein. […] In addition, alternative pathways for induction of the CRE reporter could be eliminated to reduce basal levels.

Another assay addresses T2, CRF2R (Homo sapiens, UniProt Q13324).
T2 sequence (Q13324 1-411): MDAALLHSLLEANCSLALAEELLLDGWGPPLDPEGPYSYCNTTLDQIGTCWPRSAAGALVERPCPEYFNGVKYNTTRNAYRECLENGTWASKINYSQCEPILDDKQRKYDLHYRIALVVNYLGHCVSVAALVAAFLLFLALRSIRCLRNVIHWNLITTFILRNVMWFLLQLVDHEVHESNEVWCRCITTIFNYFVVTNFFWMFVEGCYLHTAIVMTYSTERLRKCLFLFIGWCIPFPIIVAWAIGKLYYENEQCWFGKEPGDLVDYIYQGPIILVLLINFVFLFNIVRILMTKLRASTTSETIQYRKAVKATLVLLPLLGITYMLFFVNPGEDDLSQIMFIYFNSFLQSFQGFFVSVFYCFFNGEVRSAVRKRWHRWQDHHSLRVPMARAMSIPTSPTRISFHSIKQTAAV
The assay is described as follows: CRF2R agonist activity (EC50 and Emax), called comparative CRF binding. The conditions noted are these: CRF2R; for EC50: read-out: CRF2R EC50. The assay is classed as cell-based.
Source text: as §1, §2, §3, §4, §5, §6

Ends that are not written are not given here. Peptide text beside a SMILES is read from it.

Regarding `CC[C@H](C)[C@H](N)C(=O)N[C@H](C(=O)N[C@@H](CC(C)C)C(=O)N[C@@H](CO)C(=O)N[C@@H](CC(C)C)C(=O)N[C@@H](CC(=O)O)C(=O)N[C@H](C(=O)N1CCC[C@H]1C(=O)N[C@H](C(=O)NCC(=O)N[C@@H](CC(C)C)C(=O)N[C@@H](CC(C)C)C(=O)N[C@@H](CCC(N)=O)C(=O)N[C@H](C(=O)N[C@@H](CC(C)C)C(=O)N[C@@H](CC(C)C)C(=O)N[C@@H](CCC(=O)O)C(=O)N[C@@H](CCC(N)=O)C(=O)N[C@H](C(=O)N[C@@H](CCCCN)C(=O)N[C@@H](C)C(=O)N[C@@H](CCCNC(=N)N)C(=O)N[C@@H](C)C(=O)N[C@@H](C)C(=O)N[C@@H](CCCNC(=N)N)C(=O)N[C@@H](CCC(=O)O)C(=O)N[C@@H](CCC(N)=O)C(=O)N[C@@H](C)C(=O)N[C@H](C(=O)N[C@H](C(=O)N[C@@H](CC(N)=O)C(=O)N[C@@H](C)C(=O)N[C@@H](CCCNC(=N)N)C(=O)N[C@H](C(=O)N[C@@H](CC(C)C)C(=O)N[C@@H](C)C(=O)N[C@@H](CCCNC(=N)N)C(=O)N[C@H](C(N)=O)C(C)C)[C@@H](C)CC)[C@@H](C)O)[C@@H](C)O)[C@@H](C)O)[C@@H](C)CC)[C@@H](C)CC)C(C)C)C(C)C` [compound 129] (H-IVLSLDVPIGLLQILLEQTKARAAREQATTNARILARV-NH2), on CRF1R (Emax), the “CRF1R (Emax %)” value was “(12) %”. Besides, the “CRF2R (Emax %)” value at CRF2R (Emax) was “(92) %”. Besides, the EC50 at CRF2R came to 3.83 nM.

Regarding “SQEPPISLDLPLHLLREVLEMTKADQLAQQAHSNRKLLDIA-NH2 [compound 102]”, the EC50 at CRF1R and on CRF2R was not below 100 nM each time.

Turning to `CC[C@H](C)[C@H](NC(=O)[C@H](C)NC(=O)[C@H](CC(N)=O)NC(=O)[C@H](CCC(N)=O)NC(=O)[C@H](CCC(=O)O)NC(=O)[C@H](C)NC(=O)[C@H](CCCNC(=N)N)NC(=O)[C@H](CCC(=O)O)NC(=O)[C@H](CCCNC(=N)N)NC(=O)[C@H](CCC(N)=O)NC(=O)[C@H](CO)NC(=O)[C@H](CCC(N)=O)NC(=O)[C@@H](NC(=O)[C@H](CCCCN)NC(=O)[C@H](CCC(=O)O)NC(=O)[C@H](CC(C)C)NC(=O)[C@H](CCC(=O)O)NC(=O)[C@H](CC(C)C)NC(=O)[C@H](CC(C)C)NC(=O)[C@@H](NC(=O)[C@H](CCCNC(=N)N)NC(=O)[C@H](CC(C)C)NC(=O)[C@H](CC(C)C)NC(=O)[C@H](CCC(N)=O)NC(=O)[C@H](CC(C)C)NC(=O)[C@@H]1CCCN1C(=O)[C@H](CC(C)C)NC(=O)[C@H](CC(=O)O)NC(=O)[C@@H](NC(=O)[C@H](CO)NC(=O)[C@H](CC(C)C)NC(=O)[C@H](CO)NC(=O)[C@@H]1CCCN1C(=O)[C@H](CC(N)=O)NC(=O)[C@@H](N)CC(=O)O)[C@@H](C)CC)[C@@H](C)O)[C@@H](C)O)C(=O)N[C@H](C(=O)N[C@@H](Cc1ccccc1)C(=O)N[C@@H](C)C(=O)N[C@@H](CO)C(=O)N[C@H](C(N)=O)C(C)C)[C@@H](C)CC` [compound 342] (H-DNPSLSIDLPLQLLRTLLELEKTQSQRERAEQNAIIFASV-NH2; N-terminus assumed), the EC50 at CRF1R is not below 1000 nM; on CRF2R, 20.3 nM.
